Reference: ChEMBL document CHEMBL4819064, “Discovery of new pyrimidopyrrolizine/indolizine-based derivatives as P-glycoprotein inhibitors: Design, synthesis, cytotoxicity, and MDR reversal activities” (Eur J Med Chem, 2021)

Legend:
[1] = test system: MCF7; assay: Cell cycle arrest in human MCF7 cells assessed as accumulation at G1 phase at 0.5 uM incubated for 72 hrs by PI staining based flow cytometric analysis (reference value: 56.9 +/- 5.6 %); format: functional
[2] = molecular target: T1, ATP-dependent translocase ABCB1 (Homo sapiens, UniProt P08183); assay: Inhibition of P-gp activity in human MCF7/ADR cells at 250 nM after 72 hrs by RT-PCR analysis relative to control; format: cell-based, NCI/ADR-RES; conditions: nci/adr-res, 72 h, 0.25 µM
T1 sequence (P08183 whole entry): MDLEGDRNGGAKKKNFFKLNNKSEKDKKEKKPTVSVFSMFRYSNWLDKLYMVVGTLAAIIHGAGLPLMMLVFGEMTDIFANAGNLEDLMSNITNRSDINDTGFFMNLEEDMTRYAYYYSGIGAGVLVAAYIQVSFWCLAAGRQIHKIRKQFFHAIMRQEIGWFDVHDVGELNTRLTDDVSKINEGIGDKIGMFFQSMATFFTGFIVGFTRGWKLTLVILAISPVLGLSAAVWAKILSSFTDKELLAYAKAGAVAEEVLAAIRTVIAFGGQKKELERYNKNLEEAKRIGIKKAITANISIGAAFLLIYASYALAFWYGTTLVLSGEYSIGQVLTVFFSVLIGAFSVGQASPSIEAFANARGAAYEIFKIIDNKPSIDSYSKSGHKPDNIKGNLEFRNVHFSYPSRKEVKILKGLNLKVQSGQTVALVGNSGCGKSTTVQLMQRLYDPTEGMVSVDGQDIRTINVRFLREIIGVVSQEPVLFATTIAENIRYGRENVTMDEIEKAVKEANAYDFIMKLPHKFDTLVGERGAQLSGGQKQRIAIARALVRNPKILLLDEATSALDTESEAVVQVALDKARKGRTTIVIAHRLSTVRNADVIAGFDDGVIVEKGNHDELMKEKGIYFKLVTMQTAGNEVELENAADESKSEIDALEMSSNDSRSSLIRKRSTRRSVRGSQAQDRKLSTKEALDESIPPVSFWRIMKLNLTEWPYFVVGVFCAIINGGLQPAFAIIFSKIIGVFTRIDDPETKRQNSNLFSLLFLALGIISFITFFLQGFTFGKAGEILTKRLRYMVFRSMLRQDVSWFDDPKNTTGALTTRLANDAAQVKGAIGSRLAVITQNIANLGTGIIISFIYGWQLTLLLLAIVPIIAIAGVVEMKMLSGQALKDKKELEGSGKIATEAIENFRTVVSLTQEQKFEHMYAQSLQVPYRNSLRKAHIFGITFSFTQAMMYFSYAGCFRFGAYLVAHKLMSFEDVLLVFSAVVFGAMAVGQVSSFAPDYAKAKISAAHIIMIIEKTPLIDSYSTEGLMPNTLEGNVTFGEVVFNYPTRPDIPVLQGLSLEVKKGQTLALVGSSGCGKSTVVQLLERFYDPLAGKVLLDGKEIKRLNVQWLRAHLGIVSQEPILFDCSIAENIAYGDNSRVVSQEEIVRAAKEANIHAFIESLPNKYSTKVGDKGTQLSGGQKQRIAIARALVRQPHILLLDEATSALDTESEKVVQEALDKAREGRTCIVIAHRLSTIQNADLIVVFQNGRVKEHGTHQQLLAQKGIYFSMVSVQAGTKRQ

[3] = test system: MCF7; assay: Cytotoxicity against human MCF7 cells assessed as reduction in cell viability incubated for 72 hrs by MTT assay; format: functional, cell-based; conditions: MCF7, 72 h
[4] = test system: NCI/ADR-RES; assay: Synergistic cytotoxicity against human MCF7/ADR cells assessed as combination index at 1 uM after 72 hrs in presence of 0.25 uM doxorubicin by MTT assay; format: functional
[5] = test system: NCI/ADR-RES; assay: Synergistic cytotoxicity against human MCF7/ADR cells assessed as combination index at 0.25 uM after 72 hrs in presence of 0.25 uM doxorubicin by MTT assay; format: functional
[6] = test system: MCF7; assay: Induction of apoptosis in human MCF7 cells assessed as early apoptotic cells at 0.5 uM after 72 hrs by Annexin V-FITC/propidium iodide staining-based flow cytometric analysis (reference value: 4.6 %); format: functional
[7] = test system: MCF7; assay: Cell cycle arrest in human MCF7 cells assessed as accumulation at G2/M phase at 0.5 uM incubated for 72 hrs by PI staining based flow cytometric analysis (reference value: 15 +/- 1.5 %); format: functional
[8] = test system: MCF7; assay: Induction of apoptosis in human MCF7 cells assessed as early apoptotic cells at 0.250 uM after 72 hrs by Annexin V-FITC/propidium iodide staining-based flow cytometric analysis (reference value: 4.6 %); format: functional; conditions: dose 0.25 µM
[9] = test system: MCF7; assay: Induction of apoptosis in human MCF7 cells assessed as viable cells at 0.5 uM after 72 hrs by Annexin V-FITC/propidium iodide staining-based flow cytometric analysis (reference value: 86.4 %); format: functional; conditions: read-out: Activity
[10] = test system: A2780; assay: Cytotoxicity against human A2780 cells assessed as reduction in cell viability incubated for 72 hrs by MTT assay; conditions: A2780, 72 h
[11] = Selectivity index, ratio of IC50 for human MRC5 cells to IC50 for human A2780 cells; format: toxicity; conditions: MRC5 cells versus A2780 cells, read-out: Ratio IC50
[12] = test system: MCF7; assay: Cell cycle arrest in human MCF7 cells assessed as accumulation at S phase at 0.5 uM incubated for […] staining based flow cytometric analysis (reference value: […] +/- 2.6 %); format: functional
[13] = test system: MCF7; assay: Cell cycle arrest in human MCF7 cells assessed as accumulation at G1 phase at 0.250 uM incubated for 72 hrs by PI staining based flow cytometric analysis (reference value: 56.9 +/- 5.6 %); format: functional; conditions: dose 0.25 µM
[14] = molecular target: T1, ATP-dependent translocase ABCB1; assay: Inhibition of P-gp activity in human MCF7/ADR cells after 72 hrs by RT-PCR analysis; format: cell-based; conditions: nci/adr-res, at 125 to 1000 nM, dose 125-1000 nM
[15] = test system: MCF7; assay: Induction of apoptosis in human MCF7 cells assessed as late apoptotic cells at 0.125 uM after 72 hrs by Annexin V-FITC/propidium iodide staining-based flow cytometric analysis (reference value: 2.8 %); format: functional
[16] = molecular target: T1, ATP-dependent translocase ABCB1; assay: Inhibition of P-gp in human MCF7/ADR cells assessed as increase in Rho123 accumulation measured after 2 hrs by flow cytometry; format: cell-based; conditions: nci/adr-res
[17] = test system: NCI/ADR-RES; assay: Cytotoxicity against human MCF7/ADR cells assessed as reduction in cell viability incubated for 72 hrs in presence of doxorubicin by MTT assay; format: functional, cell-based
[18] = Selectivity index, ratio of IC50 for human MRC5 cells to IC50 for human MCF7 cells; format: toxicity; conditions: MRC5 cells versus MCF7 cells, read-out: Ratio IC50
[19] = test system: MCF7; assay: Cell cycle arrest in human MCF7 cells assessed as accumulation at pre-G1 phase at 0.250 uM incubated for 72 hrs by PI staining based flow cytometric analysis (reference value: 1.6 +/- 0.2 %); format: functional; conditions: dose 0.25 µM
[20] = test system: MCF7; assay: Induction of apoptosis in human MCF7 cells assessed as necrotic cells at 0.125 uM after 72 hrs by Annexin V-FITC/propidium iodide staining-based flow cytometric analysis (reference value: 6.2 %); format: functional
[21] = test system: MCF7; assay: Cell cycle arrest in human MCF7 cells assessed as accumulation at pre-G1 phase at 0.5 uM incubated for 72 hrs by PI staining based flow cytometric analysis (reference value: 1.6 +/- 0.2 %); format: functional
[22] = test system: MCF7; assay: Induction of apoptosis in human MCF7 cells assessed as viable cells at 0.250 uM after 72 hrs by Annexin V-FITC/propidium iodide staining-based flow cytometric analysis (reference value: 86.4 %); format: functional; conditions: read-out: Activity
[23] = test system: MCF7; assay: Induction of apoptosis in human MCF7 cells assessed as late apoptotic cells at 0.5 uM after 72 hrs by Annexin V-FITC/propidium iodide staining-based flow cytometric analysis (reference value: 2.8 %); format: functional
[24] = test system: MCF7; assay: Cell cycle arrest in human MCF7 cells assessed as accumulation at G1 phase at 0.125 uM incubated for 72 hrs by PI staining based flow cytometric analysis (reference value: 56.9 +/- 5.6 %); format: functional
[25] = test system: MCF7; assay: Induction of apoptosis in human MCF7 cells assessed as late apoptotic cells at 0.250 uM after 72 hrs by Annexin V-FITC/propidium iodide staining-based flow cytometric analysis (reference value: 2.8 %); format: functional; conditions: dose 0.25 µM
[26] = Reversal of multidrug resistant activity in human MCF7/ADR cells assessed as reversal fold after 72 hrs by MTT assay; format: functional, NCI/ADR-RES
[27] = Selectivity index, ratio of IC50 for human MRC5 cells to IC50 for human HT29 cells; format: toxicity; conditions: MRC5 cells versus HT29 cells, read-out: Ratio IC50
[28] = molecular target: T1, ATP-dependent translocase ABCB1; assay: Inhibition of P-gp activity in human MCF7/ADR cells at 1000 nM after 72 hrs by RT-PCR analysis relative to control; format: cell-based, NCI/ADR-RES; conditions: nci/adr-res, 72 h, 1 µM
[29] = test system: MCF7; assay: Cell cycle arrest in human MCF7 cells assessed as accumulation at S phase at 0.125 uM incubated for 72 hrs by PI staining based flow cytometric analysis (reference value: […] +/- 2.6 %); format: functional
[30] = test system: NCI/ADR-RES; assay: Synergistic cytotoxicity against human MCF7/ADR cells assessed as combination index at 0.5 uM after 72 hrs in presence of 0.25 uM doxorubicin by MTT assay; format: functional
[31] = test system: NCI/ADR-RES; assay: Synergistic cytotoxicity against human MCF7/ADR cells assessed as combination index at 0.25 uM after 72 hrs in presence of 1 uM doxorubicin by MTT assay; format: functional
[32] = test system: NCI/ADR-RES; assay: Cytotoxicity against human MCF7/ADR cells assessed as reduction in cell viability incubated for 72 hrs by MTT assay
[33] = test system: MCF7; assay: Cell cycle arrest in human MCF7 cells assessed as accumulation at G2/M phase at 0.250 uM incubated for 72 hrs by PI staining based flow cytometric analysis (reference value: 15 +/- 1.5 %); format: functional; conditions: dose 0.25 µM
[34] = test system: NCI/ADR-RES; assay: Synergistic cytotoxicity against human MCF7/ADR cells assessed as combination index at 0.5 uM after 72 hrs in presence of 1 uM doxorubicin by MTT assay; format: functional
[35] = test system: NCI/ADR-RES; assay: Synergistic cytotoxicity against human MCF7/ADR cells assessed as combination index at 0.25 uM after 72 hrs in presence of 0.5 uM doxorubicin by MTT assay; format: functional

For `N#Cc1c2n(c3c(=O)n(-c4ccccc4)cnc13)CCCC2`, the Activity [1] was 77.8%, the “inhibition (INH)” value [2] was 176% and the IC50 [3] was 300 nM. For the same compound, the CI [4] was 0.211, the CI [5] was 0.927 and the Activity [6] was 22.8%. It also gave an Activity [7] of 18.9%, an Activity [8] of 7.5% and a viability at 0.5 µM [9] of 70.3%. The IC50 [10] was 60 nM, the selectivity ratio [11] was 24.2 and the Activity [12] was 4.1%. For the same compound, the Activity [13] was 75.2%, the “inhibition (INH)” value [14] was “Dose-Dependent Effect” and the Activity [15] was 1.7%. The “inhibition (INH)” value [16] was “Dose-Dependent Effect”, the IC50 [17] was 1170 nM and the selectivity ratio [18] was 4.83. The Activity [19] was 1.2%, the Activity [20] was 5.4% and the Activity [21] was 1.6%. For the same compound, the viability at 0.25 µM [22] was 68.2%, the Activity [23] was 2.1% and the Activity [24] was 61%. For the same compound, the Activity [25] was 13.6%, the “fold change (FC)” value [26] was 15.57 and the selectivity ratio [27] was 1.36. For the same compound, the “inhibition (INH)” value [28] was 220%, the Activity [29] was 13.4% and the CI [30] was 1.9. For the same compound, the CI [31] was 0.433, the IC50 [32] was 6010 nM and the Activity [33] was 18%. The CI [34] was 1.552 and the CI [35] was 0.631.
